# Test results reported in US4959368A, “Therapeutic agent for neurological diseases” (Mitsui Petrochemical Industries Ltd., priority 1986, dated 1990).
# How the values were obtained:
# [1] = test system: human neuroblastoma cell line GOTO; test: Activity on neuroblastoma cell line GOTO (cell number, number and length of neurites); format: cell-based; conditions: for Number of cells: control 3.17
# Experimental: (§1) The biological activities in vitro of the compounds of formula (I) on cells of the nervous system were tested. The cells tested were human neuroblastoma cell line GOTO [see Sekiguchi, M., Oota, T., Sakakibara, K., Inui, N. & Fujii, G., Japan. J. Exp. Med., 49, 67-83 (1979)], and neuroblastoma cell line NB-1 [see Miyake, S., Shimo, Y., Kitamura, T., Nojyo, Y., Nakamura, T., Imkashuku, S. and Abe, T., The Autonomic Nervous System, 10, 115-120 (1973)], and mouse neuroblastoma cell line neuro-2a (Dainippon Pharmaceutical Co., Ltd.) which have been established as the cells of the nervous system. The above neuve cells were grown in an incubator at 37° C. in the presence of 5% carbon dioxide gas exponentially, and then cultivated for a certain period of time together with the compounds of formula (I).
# The effect of the compounds of this invention on neuroblastoma cells was examined by the following method.
# (§2) A culture medium [composed of 45% of RPMI 1640 medium, 45% modified Eagle's medium (MEM) and 10% of fetal calf serum (FCS) and containing penicillin G sodium (100 units/ml) and streptomycin sulfate (100 microgram/ml)] containing neurobalstoma cell line GOTO in the logarithmic growth period was poured in an amount of 2 ml each into polystyrene dishes (35 mm; made by Corning Co.) so that the cell concentration was 2 to 6×10^4 cells per dish, and the cells were cultured for 1 to 2 days in a carbon dioxide gas incubator containing 5% of carbon dioxide gas in air at 37° C. Then, the culture fluid was removed, and 2 ml of a fresh serum-free culture fluid (consisting of 50% of RPMI medium and 50% of MEM medium and containing penicillin G sodium and streptomycin sulfate in the same amounts as above) was added. At the same time, a presterilized PBS solution (phosphate buffered saline) of each of the test compounds in various concentrations was added to each of the dishes. After culturing for 24 hours, the number of living cells was counted. Furthermore, the culture was photographed, and from the photos, the number and length of neurites per cell were measured. The numer of living cells was counted for 3 to 6 dishes by resistance to staining with erythrosine dye. The number and length of the neurites were measured with regard to 6 photos (more than 200 cells per photo).
# [2] = test system: mouse neuroblastoma cell line neuro-2a; test: Activity on neuro-2a, cells with outgrown neurites; format: cell-based
# How it was run: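 Mouse neuro-2a cells in DMEM with FCS exposed to compounds for 24 h (up to 6 concentrations, triplicate runs), glutaraldehyde-fixed and methylene blue-stained. Proportion of cells bearing a neurite at least twice the cell's long diameter counted microscopically over ≥200 cells.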
# Acute toxicity, mouse = format: in vivo; conditions: in vivo, po, Table 6, p.o., read-out: Presumed LD50
# Experimental: (§3) The acute toxicity of the compounds of the invention was examined by the following method.
# (§4) Male ddy-strain 5-week old mice and male Wistar-strain 8 week old rats, five per group, were used as experimental animals. Each of the compounds was dissolved in saline and administered perorally, and the toxicity of the compound was assessed 24 hours after the administration.
# mice = test: Acute toxicity, mouse; format: in vivo; conditions: 24 hours
# Experimental: as §3, §4
# Acute toxicity, rat = format: in vivo; conditions: in vivo, po, Table 7, p.o., read-out: Presumed LD50
# Experimental: as §3, §4
# rats = test: Acute toxicity, rat; format: in vivo; conditions: Table 7, 1700 mg/kg p.o., 24 hours
# Experimental: as §3, §4
# [3] = test system: human neuroblastoma cell line GOTO; test: Activity on cell line GOTO (simple method); format: cell-based; conditions: 10 μg/ml, control 8.4
# Experimental: as §1, §2
# (§5) As a simple method of evaluation, the number of cells have neurites with a length equal to, or larger than, the long diameter of the cell was divided by the total number of cells.
# [4] = test system: mouse neuroblastoma cell line neuro-2a; test: Activity on cell line neuro-2a (simple method); format: cell-based
# Experimental: as §1, with “(I). […]” for “(I).”
# as §5
# [5] = Table 1 Run No. 3, 1 μg/ml, control 1.94 ± 0.69, all *P <0.01
# [6] = Table 1 Run No. 3, 1 μg/ml, control 45.13 ± 22.71, all *P <0.01
# [7] = Table 1 Run No. 4, 1 μg/ml, control 1.98 ± 0.74
# [8] = Table 1 Run No. 4, 1 μg/ml, control 5.48 ± 1.38
# [9] = Table 1 Run No. 4, 1 μg/ml, control 54.15 ± 33.64
structure (smiles),measurement,setting,value
c1cnc(N2CCNCC2)nc1 [Compound 124],Number of cells,"[1]; Table 1 Run No. 3, 0.0 μg/ml (so in the source)",4.01 × 10^4 /dish
same,Number of neurites/cell (mean ± S.D.),[1]; [5],2.23 ± 0.82 neurites/cell
same,Number of cells,"[1]; Table 1 Run No. 3, 1 μg/ml",4.10 × 10^4 /dish
same,Length of neurites (mean ± S.D.),[1]; [6],66.56 ± 22.16 μm/cell
same,Number of neurites/cell (mean ± S.D.),[1]; [7],2.13 ± 0.72 neurites/cell
same,Number of cells (mean ± S.E.),[1]; [8],7.22 ± 1.98 × 10^4 /dish
same,Length of neurites (mean ± S.D.),[1]; [9],72.19 ± 49.23 μm/cell
same,Number of neurites/cell (mean ± S.D.),"[1]; Table 1 Run No. 4, 10 μg/ml, control 1.98 ± 0.74",2.08 ± 0.69 neurites/cell
same,Number of cells (mean ± S.E.),"[1]; Table 1 Run No. 4, 10 μg/ml, control 5.48 ± 1.38",5.45 ± 2.61 × 10^4 /dish
same,Length of neurites (mean ± S.D.),"[1]; Table 1 Run No. 4, 10 μg/ml, control 54.15 ± 33.64",71.31 ± 45.67 μm/cell
same,Number of neurites/cell (mean ± S.D.),"[1]; Table 1 Run No. 5, 1 μg/ml, control 1.96 ± 0.64",1.96 ± 0.54 neurites/cell
same,Number of cells (mean ± S.E.),"[1]; Table 1 Run No. 5, 1 μg/ml, control 5.30 ± 0.23",4.89 ± 0.59 × 10^4 /dish
same,Length of neurites (mean ± S.D.),"[1]; Table 1 Run No. 5, 1 μg/ml, control 46.41 ± 33.28",52.59 ± 32.50 μm/cell
same,Cells having neurites with a length at least twice the long diameter of cell/total number of cells,"[2]; Table 3 Run No. 1, 3.6 μM, control 2.2 ± 0.8",4.6 ± 0.5%
same,Cells having neurites with a length at least twice the long diameter of cell/total number of cells,"[2]; Table 3 Run No. 1, 36 μM, control 2.2 ± 0.8",3.8 ± 1.2%
same,LD50 at 24 h,"Acute toxicity, mouse",550 to 1000 mg/kg
same,Number of dead animals/number of test animals,"mice; Table 6, 300 mg/kg p.o.",0/5
same,Number of dead animals/number of test animals,"mice; Table 6, 500 mg/kg p.o.",0/5
same,Number of dead animals/number of test animals,"mice; Table 6, 1000 mg/kg p.o.",3/5
CN1Cc2nc(N3CCNCC3)ncc2C1=O [Compound 602],Cells having neurites with a length at least twice the long diameter of cell/total number of cells,"[2]; Table 3 Run No. 6, 0.1 mM, control 4.4 ± 0.9",6.2 ± 0.2%
same,Cells having neurites with a length at least twice the long diameter of cell/total number of cells,"[2]; Table 3 Run No. 6, 3 mM, control 4.4 ± 0.9",10.0 ± 0.9%
same,Number of dead animals/number of test animals,"mice; Table 7, 1000 mg/kg p.o.",0/5
same,Number of dead animals/number of test animals,"mice; Table 7, 1700 mg/kg p.o.",0/5
same,Number of dead animals/number of test animals,"mice; Table 7, 3000 mg/kg p.o.",3/5
same,LD50 at 24 h,"Acute toxicity, rat",> 1700 mg/kg
same,Number of dead animals/number of test animals,rats,0/5
"CC(C)Nc1ncccn1.O=P(O)(O)O [Isaxonine, 2-isopropylaminopyrimidine ortho-phosphate, reference compound]",Length of neurites (mean ± S.D.),"[1]; Table 1, Run No. 6 by footnote, 1 μg/ml, control 42.48 ± 19.64, all *P <0.01",58.20 ± 25.40 μm/cell
same,Length of neurites (mean ± S.D.),"[1]; Table 1, Run No. 7 by footnote, 1 μg/ml, control 42.20 ± 17.75, all *P <0.01",57.06 ± 28.78 μm/cell
same,Number of neurites/cell (mean ± S.D.),"[1]; Table 1, last control group (Run No. 7 by footnote), 1 μg/ml, control 1.77 ± 0.68",1.91 ± 0.56 neurites/cell
same,Number of neurites/cell (mean ± S.D.),"[1]; Table 1, second control group (Run No. 6 by footnote), 1 μg/ml, control 1.79 ± 0.80",2.00 ± 0.86 neurites/cell
same,Number of neurites/cell (mean ± S.D.),"[1]; Table 1 Run No. 1, 1 μg/ml, control 2.09 ± 0.61",2.18 ± 0.77 neurites/cell
same,Number of cells (mean ± S.E.),"[1]; Table 1 Run No. 1, 1 μg/ml, control 14.34 ± 0.72",17.63 ± 2.80 × 10^4 /dish
same,Length of neurites (mean ± S.D.),"[1]; Table 1 Run No. 1, 1 μg/ml, control 70.10 ± 43.03",87.86 ± 56.03 μm/cell
same,Number of neurites/cell (mean ± S.D.),"[1]; Table 1 Run No. 1, 10 μg/ml, control 2.09 ± 0.61",1.99 ± 0.51 neurites/cell
same,Number of cells (mean ± S.E.),"[1]; Table 1 Run No. 1, 10 μg/ml, control 14.34 ± 0.72",19.18 ± 0.67 × 10^4 /dish
same,Length of neurites (mean ± S.D.),"[1]; Table 1 Run No. 1, 10 μg/ml, control 70.10 ± 43.03",82.87 ± 50.70 μm/cell
same,Number of neurites/cell (mean ± S.D.),"[1]; Table 1 Run No. 2, 1 μg/ml, control 2.06 ± 0.60",2.09 ± 0.66 neurites/cell
same,Number of cells (mean ± S.E.),"[1]; Table 1 Run No. 2, 1 μg/ml, control 12.30 ± 1.48",14.89 ± 1.35 × 10^4 /dish
same,Length of neurites (mean ± S.D.),"[1]; Table 1 Run No. 2, 1 μg/ml, control 55.00 ± 37.26",66.01 ± 40.21 μm/cell
same,Number of neurites/cell (mean ± S.D.),[1]; [5],2.31 ± 0.86 neurites/cell
same,Number of cells,"[1]; Table 1 Run No. 3, 1 μg/ml",4.72 × 10^4 /dish
same,Length of neurites (mean ± S.D.),[1]; [6],68.29 ± 24.83 μm/cell
same,Number of neurites/cell (mean ± S.D.),[1]; [7],1.99 ± 0.70 neurites/cell
same,Number of cells (mean ± S.E.),[1]; [8],9.44 ± 1.95 × 10^4 /dish
same,Length of neurites (mean ± S.D.),[1]; [9],71.25 ± 40.39 μm/cell
same,Average of the proportions,[3]; Table 2 GOTO Run No. 1,12.58%
same,Average of the proportions,[3]; Table 2 GOTO Run No. 2,12.58%
same,Average of the proportions,"[4]; Table 2 neuro-2a Run No. 1, 1 μg/ml, control 7.9",12.15%
same,Average of the proportions,"[4]; Table 2 neuro-2a Run No. 2, 1 μg/ml, control 7.9",12.15%
same,Average of the proportions,"[4]; Table 2 neuro-2a Run No. 3, 0.1 μg/ml, control 2.0",9.1%
same,Average of the proportions,"[4]; Table 2 neuro-2a Run No. 3, 1 μg/ml, control 2.0",9.1%
same,Cells having neurites with a length at least twice the long diameter of cell/total number of cells,"[2]; Table 3 Run No. 3, 0.03 mM, control 3.9 ± 0.3",4.7 ± 0.4%
same,Cells having neurites with a length at least twice the long diameter of cell/total number of cells,"[2]; Table 3 Run No. 3, 0.1 mM, control 3.9 ± 0.3",6.8 ± 1.2%
same,Cells having neurites with a length at least twice the long diameter of cell/total number of cells,"[2]; Table 3 Run No. 3, 1 mM, control 3.9 ± 0.3",7.0 ± 0.8%
same,Cells having neurites with a length at least twice the long diameter of cell/total number of cells,"[2]; Table 3 Run No. 4, 1 mM, control 3.1 ± 0.2",5.7 ± 1.2%
same,Cells having neurites with a length at least twice the long diameter of cell/total number of cells,"[2]; Table 3 Run No. 4, 3 mM, control 3.1 ± 0.2",13.6 ± 2.3%
same,Cells having neurites with a length at least twice the long diameter of cell/total number of cells,"[2]; Table 3 Run No. 4, 10 mM, control 3.1 ± 0.2",34.4 ± 0.6%
same,Cells having neurites with a length at least twice the long diameter of cell/total number of cells,"[2]; Table 3 Run No. 6, 10 mM, control 4.4 ± 0.9",29.9 ± 0.9%
same,Cells having neurites with a length at least twice the long diameter of cell/total number of cells,"[2]; Table 3 Run No. 7, 10 mM, control 2.5 ± 0.7",24.9 ± 1.0%
same,Cells having neurites with a length at least twice the long diameter of cell/total number of cells,"[2]; Table 3 Run No. 8, 10 mM, control 3.7 ± 0.4",28.2 ± 1.6%
same,Cells having neurites with a length at least twice the long diameter of cell/total number of cells,"[2]; Table 3 second Run No. 5, 1 mM, control 4.5 ± 0.3",6.8 ± 2.2%
same,Cells having neurites with a length at least twice the long diameter of cell/total number of cells,"[2]; Table 3 second Run No. 5, 10 mM, control 4.5 ± 0.3",27.0 ± 3.4%
